Experimental data from publication PMC3869807 (PLoS ONE, 2013).
Several values for one entry are separate records, joined by “and”; a condition that tells them apart may be missing. Equal values may be shown once.

What was measured:
µ-opioid receptor [1] = target: T1, µ-opioid receptor (Homo sapiens, UniProt P35372); experiment: cell-based; type: cell-based; parameters: host or cells: U2OS
µ-opioid receptor [2] = target: T1, µ-opioid receptor; experiment: biochemical; parameters: host or cells: U2OS (membrane preparation)
µ-opioid receptor [3] = target: T1, µ-opioid receptor; experiment: biochemical; type: binding; parameters: host or cells: U2OS (membrane preparation)
µ-opioid receptor [4] = target: T1, µ-opioid receptor; experiment: biochemical; type: binding; parameters: host or cells: U2OS (membrane preparation); remark: listed apart in the source

T1 sequence (P35372 whole entry): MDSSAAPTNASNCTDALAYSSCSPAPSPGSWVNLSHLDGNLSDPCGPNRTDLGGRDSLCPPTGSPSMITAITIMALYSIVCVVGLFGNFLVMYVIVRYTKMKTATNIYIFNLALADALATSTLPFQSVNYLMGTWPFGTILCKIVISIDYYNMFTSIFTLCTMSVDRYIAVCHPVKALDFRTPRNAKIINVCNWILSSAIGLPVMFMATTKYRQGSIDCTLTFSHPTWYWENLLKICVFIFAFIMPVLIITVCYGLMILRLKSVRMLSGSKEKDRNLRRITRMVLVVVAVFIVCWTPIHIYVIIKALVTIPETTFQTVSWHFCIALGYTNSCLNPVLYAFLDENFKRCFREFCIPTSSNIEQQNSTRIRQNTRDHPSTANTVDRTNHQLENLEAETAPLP

C[C@@H](NC(=O)[C@@H](N)Cc1ccc(O)cc1)C(=O)NCC(=O)N(C)[C@@H](Cc1ccccc1)C(=O)NCCO [DAMGO, [D-Ala^2, MePhe^4, gly^5 –ol]-enkephalin]
β-arrestin recruitment that was PTX sensitive (µ-opioid receptor [1]): 60–70%

NC(=O)[C@H](Cc1ccccc1)NC(=O)[C@H](Cc1ccccc1)NC(=O)[C@@H]1CCCN1C(=O)[C@@H](N)Cc1ccc(O)cc1 [Endomorphin 2, endomorphin 2]
Emax (µ-opioid receptor [1]): 74±4%
Emax (µ-opioid receptor [1]; U2OS): 69 ± 3%
Emax (µ-opioid receptor [2]): 104% and 101±2%

COc1ccc2c3c1O[C@H]1C(=O)CC[C@@]4(O)[C@@H](C2)N(C)CC[C@]314 [Oxycodone, oxycodone]
β-arrestin recruitment that was PTX sensitive (µ-opioid receptor [1]): 60–70%
Emax (µ-opioid receptor [2]): 95% and 104±2%

CC(=O)N[C@@H](Cc1ccccc1)C(=O)NCC(C)(C)NC(=O)[C@@H](N)Cc1ccc(O)cc1.Cl [Pfizer comp 1, 2-(L-Tyrosylamino)-1-[(N-acetyl-L-phenylalanyl)-amino]-2-methylpropane hydrochloride]
Emax (µ-opioid receptor [1]): 99±8%
β-arrestin recruitment that was PTX sensitive (µ-opioid receptor [1]): 60–70%
Emax (µ-opioid receptor [1]; U2OS): 106 ± 4%
EC50 (µ-opioid receptor [1]; β-fun 1 nM EC50): 1.38 nM
EC50 (µ-opioid receptor [1]; β-fun 10 nM EC50): 2.24 nM
Ki (µ-opioid receptor [3]; GRK2 moi 5 KL): 21.9 nM
Ki (µ-opioid receptor [3]; Untransduced KL): 42.7 nM
Ki (µ-opioid receptor [4]; GRK2 moi 5 KH): 0.0513 nM
Ki (µ-opioid receptor [4]; Untransduced KH): 0.0479 nM
Emax (µ-opioid receptor [2]): 103% and 100±4%
EC50 (µ-opioid receptor [2]; EC50): 0.219 nM and 0.17 nM
